Read-outs that look alike come from different tables or passages of the source.

The target in one data set is EPPIN (Homo sapiens, UniProt O95925). The data set can be described thus: AlphaScreen assay of a-EAb binding to EPPIN. The settings on record: n = 4, read-out: IC50, inhibition of a-EAb binding to EPPIN. Here is the method: The AlphaScreen® assay was carried as previously described. Briefly, recombinant histidine-tagged recombinant EPPIN was pre-incubated with Ni-NTA chelate donor beads (catalog number AS101, Perkin Elmer, Waltham MA) and anti-Eppin 007 antibody was pre-incubated with Protein A acceptor beads (catalog number 6760136, Perkin Elmer, Waltham MA) for 30 minutes. Equal volumes of donor and acceptor bead mixtures were pipetted into white opaque 384-well microplates (OptiPlate-384; PerkinElmer, Waltham, MA) in a final volume of 30 μL. Plates were covered with top seal and transferred to a Synergy 2 Multiplatform automated plate reader (Biotek, Winooski, VT). After shaking for 2 min, plates were read with an excitation 680/30 filter, an emission 570/100 filter and data acquired using Gen5 software (Biotek). Each set of samples was pipetted in 4 replicates. […] A specific signal for each time point was calculated by subtracting the background signal (obtained in the absence of EPPIN) from its respective total signal. […] Non-specific interactions of compound with assay components were measured at the same time with the IgG detection kit ([…] biotinylated rabbit IgG) to generate the bead interaction: 10 μg/ml donor and acceptor beads. […]
Sequence of EPPIN (O95925 22-133): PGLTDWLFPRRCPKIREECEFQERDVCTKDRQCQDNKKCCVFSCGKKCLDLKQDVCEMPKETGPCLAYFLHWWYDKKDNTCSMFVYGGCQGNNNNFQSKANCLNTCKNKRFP

The nature of data set [1]: EP054/EP055 plasma half-life in cynomolgus male macaques. Details: species or system Macaca fascicularis. The settings on record: cynomolgus monkey, in vivo, iv, 1 mg/kg, summary of both studies. As to the method: Half-life measurements for EP054/EP055 were done by Sinclair Research Center, LLC (SRC) (Study No. S14109, Auxvasse, MO). This study was reviewed and approved by the Sinclair IUCAC committee and complied with all applicable sections of USDA Policy 12 and the Final Rules of the Animal Welfare Act regulation (9 CFR). This study used 3 naïve cynomolgus (Macaca fascicularis) males (3-4 yrs old, 4 kg or less). Doses of EP054 in 3% DMSO-PBS, pH 7.6 were infused by i.v. at 1.0 mg/kg. The infusion rate was 4 ml/min. Plasma samples were collected at 0, 5, 15, 30 min and 1, 4, 8 and 24 hours, and immediately frozen on dry ice. Samples were stored at -80 °C until processing.
(§1) Sample preparation and LC-MS/MS analysis were done by OpAns LLC (Durham, NC). Plasma samples (both rat and macaque) were thawed at room temperature and processed by adding 160 µL of methanol (including 10 µL internal standard) to 25 µL of the sample. Samples were vortexed for 5 minutes, centrifuged at 2684 x g for 5 minutes. 50 µL of supernatant was removed for analysis by HPLC-MS/MS.
Therefore, samples were analyzed for the presence of EP055.

Data set [2] is described as follows: EP055 plasma and semen levels in rhesus males after i.v. infusion. It counts as in vivo, Macaca mulatta.
Excerpt: Semen was collected by direct penile stimulation with a P-T Electronics Model 303 PTE 110 Volt AC stimulator equipped with electrocardiogram pad electrodes (10–35 V, 20 ms duration, 18 pulses/sec) as previously described. Semen was collected weekly for 3 weeks to establish baseline parameters for each male. Samples were inspected visually to determine sperm motility and suitability for the study. Sperm motility data from male 28106 presented in S1 Table is representative of pre-treatment samples. Immediately after collection, the seminal plug was separated from the liquefied fraction, placed into a cryovial, flash frozen in liquid nitrogen, and stored at -80C until evaluation for drug levels. Spermatozoa were prepared by centrifugation (7 min, 200 g) of the liquid portion of the ejaculate and resuspending the sperm pellet in TALP-HEPES medium containing 0.3% bovine serum albumin at 37°C. An aliquot was taken to determine concentration using a hemocytometer, percent motility and forward progression as previously described. Baseline semen samples were collected from each male twice during the week prior to treatment. Semen was collected from each male 6–8 hr, 28–30 hr, and 78 hr post-infusion of low dose EP055 (75–80 mg/kg body weight) intravenously. After a one-week recovery period, a baseline semen sample was obtained, and the following week semen samples were collected as described above after an intravenous infusion of high dose EP055 (125–130 mg/kg).
as §1
Semen or tissue samples were thawed at room temperature. PBS at pH 7.6 was added to each sample at a ratio of 2:1 and sonicated in an ice chilled bath for 5 minutes before homogenization using a Polytron unit (Kinematica AG, Lucerne, Switzerland). An aliquot (25 uL) of each sample homogenate was processed as described for plasma samples.
Prior to infusion of EP055, each male was sedated with ketamine by the surgical staff at ONPRC and transported to the operating room. After positioning in dorsal recumbency, the male was intubated and placed under inhalant (isoflurane) anesthesia. Bilateral intravenous catheters were placed in cephalic veins, one for infusion and one for back-up. A percutaneous arterial line was placed in the right femoral artery for direct blood pressure measurement. Invasive blood pressure, heart rate, SpO2, and respirations were monitored by the surgical staff throughout the procedure. Initially, the low doses of EP055 in 5% DMSO-PBS 7.6 was infused by i.v. at 75-80 mg/kg, using a Medfusion 3500 pump (Smiths Medical, St. Paul, MN), and was started at a low flow rate ([…]). In 3 of 4 males, a 5-10% increase in blood pressure and heart rate were noted within the first 2-3 minutes of infusion of EP055. In these cases, the infusion was temporarily suspended until these parameters subsequently declined to normal. The infusion rate was then doubled to 1.2 ml/kg/min after 5-10 minutes and the final volume of EP055 infusate was administered. Blood pressure and heart rate remained normal throughout the rest of the infusion interval. The total volume of EP055 infusate ranged from 72 ml – 136 ml, depending upon the weight of the animal, and the duration of infusion was 10-13 minutes. Following completion of the infusion, all animals recovered normally. Animals were monitored by clinical veterinary staff immediately, at 1 hr, 2 hr and 6-8 hr post-infusion, and daily for up to 30 days after the final infusion of EP055. […]

Take `COC(=O)NNc1nc(Nc2ccc(NC(C)=O)c(O)c2)nc(SCC(=O)O)n1` [EP055]: the 50% inhibitory concentration (IC50) on EPPIN came out at 1.12 mM. This compound also had a half-life in data set [1] of 10 to 12 min. For the same compound, the concentration is 970 ± 660 nM in data set [2] (high dose 125–130 mg/kg, 6–8 hr, read-out: Plasma levels); 539000 nM in data set [2] (high dose 125–130 mg/kg, 6–8 hr, read-out: Semen Levels); 900 ± 900 nM in data set [2] (high dose 125–130 mg/kg, 13–17 days, read-out: Semen Levels); 400 ± 300 nM in data set [2] (low dose 75–80 mg/kg, 14–18 days, read-out: Semen Levels); over 300000 nM in data set [2] (rhesus, 6 and 30 hours after high-dose infusion, read-out: semen levels). The concentration at 30 h is 0.02 ± 0.01 µM in data set [2] (rhesus monkey, plasma, iv, high dose 125–130 mg/kg, read-out: Plasma levels); 0.01 µM in data set [2] (rhesus monkey, plasma, iv, low dose 75–80 mg/kg, read-out: Plasma levels); 376 µM in data set [2] (rhesus monkey, semen, iv, high dose 125–130 mg/kg, read-out: Semen Levels); 128 ± 46 µM in data set [2] (rhesus monkey, semen, iv, low dose 75–80 mg/kg, read-out: Semen Levels). Also, the concentration at 6 h in data set [2] (rhesus monkey, plasma, iv, low dose 75–80 mg/kg, 6 hr after infusion, mean ± SEM 4 animals, read-out: Plasma levels) is 0.62 ± 0.3 µM; in data set [2] (rhesus monkey, semen, iv, low dose 75–80 mg/kg, 6 hr, read-out: Semen Levels), 293 µM. For the same compound, the concentration at 78 h in data set [2] (rhesus monkey, semen, iv, high dose 125–130 mg/kg) is 101 ± 30 µM; in data set [2] (rhesus monkey, semen, iv, low dose 75–80 mg/kg) it was 61 ± 22 µM. In data set [2] (rhesus monkey, semen/plasma, iv, high dose 125–130 mg/kg, 6–8 hr, read-out: Ratio of S/P), the Kp stood at 556. The Kp at 6 h in data set [2] (rhesus monkey, semen/plasma, iv, low dose 75–80 mg/kg, 6 hr, read-out: Ratio of S/P) turned out to be 473. Further, the detection in plasma entry in data set [2] (rhesus, 6–8 hours post-infusion) is on record as “detected”; in data set [2] (rhesus, 28–30 hours post-infusion), “barely detectable”. Besides, the “time semen levels detectable post-infusion” value in data set [2] (rhesus, low and high dose) was “up to 78 hours”.

The values above are taken from article PMC5908160, “Inhibition of sperm motility in male macaques with EP055, a potential non-hormonal male contraceptive” (PLoS ONE, 2018).
